Laboratory results as given in patent publication US20160136284A1, “GLIOMA TREATMENT” (priority 2012, published 2016).

Experiment: Coinfusion of carboplatin and gadolinium-DTPA into pig corona radiata (T1 MRI, LA-ICP-MS)
Format: in vivo
Settings: carboplatin 0.03 mg/ml coinfused with 0.3% gadolinium-DTPA, CED
Description: Carboplatin infusions were undertaken into male Large White Landrace pigs weighing 45 kg using a cannula system developed in-house. Pig anaesthesia, head immobilisation and brain imaging were achieved as we have previously described White et al (2010). Infusions of 120 μl 0.03 mg/ml carboplatin mixed with 0.3% (6 μmol/l) Gadolinium-DTPA (Magnevist: Bayer Healthcare, Germany), were undertaken bilaterally into the corona radiata using a cannula composed of a length of fused silica (outer diameter 220 μm, inner diameter 150 μm) bonded to a glass Hamilton syringe. Except for the distal 3 mm, this fused silica tube was supported along its length by a series of zirconia tubes to ensure that it could be accurately inserted to target. Infusions were performed using the following regime: 0.5 μl/min for 5 min, 1 μl/min for 5 min, 2.5 μl/min for 5 min and then 5 μl/min for 20 min. This regime was employed in an attempt to minimise the occurrence of a sudden surge in pressure at the catheter tip due to elasticity in the infusion tubing. 120 μl was infused as this is the largest volume that we have previously infused into pig white matter without leakage into the ventricular system. Following infusion completion, the cannula was left in place for 10 min prior to being withdrawn slowly by hand. CSF leakage from the burr hole and cannula track was sealed with Cerebond prior to wound closure. […]

## Gadolinium-DTPA
  distribution in pig corona radiata (LA-ICP-MS): distributed over a larger volume of brain than carboplatin
